PubChem BioAssay (NCI)
Where “and” joins values, the source holds several entries; their conditions need not be identical. Equal values may be shown once.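 Following 48 hours of exposure in 96-well plates, responses at five concentrations were used to interpolate endpoints linearly. GI50: concentration for 50% inhibition of growth. Definition used: TGI = concentration required for complete inhibition of growth.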

What was measured:
Test in all cases: NCI anticancer screen, dose series, 48 h
BT-549 breast = test system: BT-549 breast
IGROV1 ovarian = test system: IGROV1 ovarian
KM12 colon = test system: KM12 colon
NCI-H522 lung = test system: NCI-H522 lung
OVCAR-3 ovarian = test system: OVCAR-3 ovarian
RXF 393 renal = test system: RXF 393 renal
SF-539 CNS = test system: SF-539 CNS
T-47D breast = test system: T-47D breast
TK-10 renal = test system: TK-10 renal
U251 CNS = test system: U251 CNS

| SMILES | GI50 (BT-549 breast) [µM] | TGI (BT-549 breast) | GI50 (IGROV1 ovarian) | TGI (IGROV1 ovarian) | GI50 (KM12 colon) | TGI (KM12 colon) | GI50 (NCI-H522 lung) | TGI (NCI-H522 lung) | GI50 (OVCAR-3 ovarian) [µM] | TGI (OVCAR-3 ovarian) [µM] | GI50 (RXF 393 renal) | TGI (RXF 393 renal) | GI50 (SF-539 CNS) [µM] | TGI (SF-539 CNS) | GI50 (T-47D breast) [µM] | TGI (T-47D breast) | GI50 (TK-10 renal) [µM] | TGI (TK-10 renal) [µM] | GI50 (U251 CNS) [µM] | TGI (U251 CNS) |
| --- | --- | --- | --- | --- | --- | --- | --- | --- | --- | --- | --- | --- | --- | --- | --- | --- | --- | --- | --- | --- |
| O=c1cc(NC2CCN(CCCc3ccccc3)CC2)c2cc(Cl)ccc2o1 | 12.9 | 26.8 µM | 11.3 µM | 26.6 µM | 12.5 µM | 25 µM | 8.35 µM | 23.5 µM | 6.6 | 19.4 | 5.88 µM | 21.2 µM | 12.3 | 25.3 µM | 12.5 | 38.4 µM | 13.4 | 26.6 | 9.19 | 21.3 µM |
| CC(=O)C(=CN1CCN(C(=O)c2ccco2)C1=S)C(C)=O | 14 | 30.1 µM | 3.64 µM | 17.3 µM | 2.83 µM | 9.72 µM |  |  | 11.4 | 35.9 | 1.84 µM | 6.24 µM |  |  | 3.65 | 12.6 µM | 4.19 | 14.3 | 4.84 | 23.6 µM |
| Nc1ccn(C2CCC(CO)O2)c(=O)n1 (stereo not drawn) |  | > 1000 µM | > 1000 µM | > 1000 µM | > 1000 µM | > 1000 µM |  | > 1000 µM | > 1000 | > 1000 |  |  | > 1000 | > 1000 µM |  | > 1000 µM |  | > 1000 | > 1000 | > 1000 µM |
| O=C(CCC1OCCO1)Nc1cc(NCc2ccccc2)ccc1OCc1ccccc1 |  | > 100 µM |  | > 100 µM |  | 97.9 µM |  | 78.6 µM |  |  |  | 77.8 µM |  | 94.6 µM |  | > 100 µM |  | 83.4 |  | > 100 µM |
| O=c1cccc(C#CC#CC2=CCCCC2)o1 | 2.57 |  | 5.4 µM | 18.1 µM | 5.84 µM | 13.6 µM | 4.03 µM | 10.9 µM | 6.66 | 10.4 | 2.69 µM | 5.57 µM | 0.235 | 3.04 µM | 2.73 | 14.8 µM | 8.69 | 14.2 | 4.13 | 9.46 µM |
| COc1ccc(/C=C/C(=O)C(CC2CCC2)C(=O)/C=C/c2ccc(OC)c(OC)c2)cc1OC | 1.54 | 4.04 µM | 2 µM | 5.27 µM | 2.22 µM | 6.66 µM |  |  | 1.04 | 3.04 | 1.85 µM | 3.47 µM | 1.71 | 3.57 µM | 1.39 | 4.44 µM | 2.59 | 4.88 | 1.38 | 2.79 µM |
| Nc1ccc2cc3ccc(N)cc3nc2c1 | 1.91 | 10.4 µM and 16.2 µM and 12 µM | 2.07 µM [middle of 4 runs] | 7.69 µM [middle of 4 runs] | 631 nM [middle of 4 runs] | 6.73 µM [middle of 4 runs] | 0.295 µM and 0.542 µM and 0.824 µM | 1.31 µM and 2.82 µM and 2.87 µM | 1.7 |  | 2.03 µM and 1.36 µM and 0.565 µM | 5.83 µM and 3.15 µM and 1.97 µM | 1.56 | 4.54 µM [middle of 4 runs] |  | 14.9 µM and 9.61 µM and 8.53 µM | 0.513 |  |  | 11.4 µM and 10.4 µM and 9.94 µM |
| C/C(N=NC(=S)N(C)C)=C1\C=CC=CN1O |  | > 100 µM |  | > 100 µM |  | > 100 µM |  | > 56.2 µM |  | > 100 |  | > 100 µM | < 0.1 | > 100 µM |  | > 100 µM |  | > 100 |  | > 100 µM |
| O=C(/C=C\c1ccc(NCc2ccc(C(=O)O)cc2)cc1)CCl | 7.95 | 21.5 µM | 16.7 µM | 37.2 µM | 17 µM | 32 µM | 1.65 µM | 3.24 µM | 11.7 | 24.6 |  |  | 15.5 | 29.3 µM | 2.6 | 12.5 µM |  |  | 13.9 | 27 µM |
| CCCCCCCCCCCCCCCCCCOc1ccccc1CC(=O)OCC[N+]1(C)CCCC1 | 2.59 | 6.95 µM | 1.52 µM | 3.06 µM | 1.88 µM | 3.49 µM |  |  | 1.63 | 3.13 | 1.35 µM | 2.76 µM | 1.86 | 3.62 µM | 3 | 17 µM | 1.52 | 3.08 |  |  |
| Cc1ccc(-c2nc3ccc(Cl)cc3c(=O)n2N2C(=O)CSC2c2ccccc2Cl)cc1 (stereo not drawn) | > 100 | > 100 µM | 3.69 µM | > 100 µM | > 100 µM | > 100 µM |  |  | 5.44 | > 100 | 6.46 µM | > 100 µM | > 100 | > 100 µM | 3.82 | > 100 µM |  |  | 5.05 | > 100 µM |
| Cc1[nH]c2ccccc2c(=O)c1CC=C(Cl)Cl | 47 | > 100 µM | 64.2 µM | > 100 µM | > 100 µM | > 100 µM | 24.6 µM | > 100 µM | 43.5 | > 100 |  |  | 39.4 | > 100 µM | 29 | > 100 µM | 25.5 | 99.3 |  |  |
| CC(CO)(CO)NCCCCn1ccc2c1C(=O)c1c(c(O)c3ccccc3c1O)C2=O | 19.9 | 51.2 µM |  |  | 1.4 µM | 2.7 µM |  |  | 5.78 | 29.1 | 4.49 µM | 31.7 µM | 15.3 | 47.1 µM | 21.1 | 65.8 µM | 1.51 | 4.57 |  |  |
| CC(C)C[C@H](NC(=O)/C=C/Cn1ccc2ccccc2c1=O)B(O)O | 2.67 | 13.7 µM | 10.8 µM | > 100 µM | 4.54 µM | 19 µM | 2.52 µM | 6.39 µM | 2.55 | 7.88 | 2.13 µM | 5.15 µM | 2.16 | 6.45 µM | 2.68 | 15.3 µM | 3.27 | 10.4 |  |  |
| COc1c(CCl)cc(-c2cc(=O)c3ccccc3s2)cc1CCl |  | > 100 µM |  | > 100 µM |  | > 100 µM |  |  |  | > 100 |  | 3.2 µM |  | > 42.3 µM |  | 4.03 µM |  | 99.7 |  | > 59.8 µM |
